For assay [1], the target named is PsbE protein, the α subunit of Cytochrome b559 (spinach (endogenous in PSII membranes from spinach leaves)) (UniProt P69383).
For assay [2], the system named is OEC (Mn4CaO5 cluster) in PSII. Description: Light-induced S2/S1 FTIR difference spectroscopy. It is filed as biochemical, spinach. The settings on record: peptide:PSII 200:1, pH 6.0, 5 mM CaCl2, 5 mM NaCl, 10 °C, 1800–1200 cm^-1.
Method: FTIR measurements were performed following the method reported previously[20][61] with some modifications. NaCl-washed PSII membranes were suspended (2.5 mg Chl ml^−1) in a buffer containing 4 mM MES-NaOH, 40 mM sucrose, 5 mM CaCl2, and 5 mM NaCl (pH 6.0). […] The resultant sample film was moderately hydrated by sealing the cell using another CaF2 plate and a silicone spacer (0.5 mm in thickness) enclosing 2 μl of 40% (v/v) glycerol solution without touching the sample. The sample temperature was adjusted to 10 °C by circulating cold water in a copper holder. Light-induced S2-minus-S1 difference spectra (S2/S1 spectra) were recorded using a spectrophotometer (VERTEX 80, Bruker Optics) equipped with an MCT detector (InfraRed D313-L) at 4 cm^−1 resolution (20, 61). A Ge filter to cut IR light at >2200 cm^−1 (Andover, 4.50ILP-25) was placed in the IR path in front of the sample to improve the signal-to-noise ratios of spectra as well as to block a He-Ne laser beam from the interferometer. Illumination was provided by a Q-switched Nd:YAG laser (INDI-40-10; 532 nm, ~ 7 ns full width at half-maximum, and ~ 7 mJ pulse^–1 cm^–2 at the sample surface; Spectra-Physics, UK). Single-beam spectra were recorded with 100 scans (~50-s accumulation) before and after single-flash illumination to calculate a difference spectrum, and the measurements were repeated 20 times with an interval of 25 min.
The test system of another assay is PSII. Nature of the assay: Oxygen-evolving activity of reconstituted PSII membranes (Clark-type oxygen electrode). The settings on record: NaCl-washed PSII membranes, peptide:PSII 50:1 to 200:1, 5 mM CaCl2 and 5 mM NaCl, pH 6.5, 0.4 mM DCBQ; membranes without reconstitution = 100% (251 ~ 317 μmol O2 mg Chl^-1 h^-1); n = 3. It is filed as biochemical, spinach.
For a further assay, the system named is Cyt b559 in PSII. Nature of the assay: Redox forms of Cyt b559 by stepwise reductive titration (absorption difference spectroscopy), reconstituted NaCl-washed PSII membranes. In kind it is biochemical, spinach.

Where no end group is shown, it is not given here.

From the text for Cyt b559 in PSII: Hydroquinone-reduced minus ferricyanide-oxidized (1), ascorbate-reduced minus ferricyanide-oxidized (2), and dithionite-reduced minus ferricyanide-oxidized (3) difference spectra were used to estimate the amount of the HP, IP, and LP forms of Cyt b559, respectively. Each spectrum was an average of three independent measurements and normalized to the peak of the dithionite-reduced minus ferricyanide-oxidized difference spectrum. (B) Relative content of the HP, IP, and LP forms of Cyt b559 determined by stepwise reductive titration. Total amount of Cyt b559 is set as 100%. […] (*p < 0.05, Student’s t-test); n = 3, error bars = SEM.
PSII membranes, isolated from spinach leaves[56], were treated for 30 min with the buffer containing 1.5 M NaCl on ice to remove PsbP and PsbQ. […] In the control, MES buffer, without any peptide fragments, was used. After incubation for 1 h on ice, the reconstituted PSII samples were carried forward to determine the state of their redox forms of Cyt b559, oxygen-evolving activity, FTIR analysis and TL measurements. Where indicated, PSII samples were washed once, before the analysis, with buffer (25 mM MES-NaOH, pH 6.5, 5 mM NaCl, 5 mM CaCl2, 0.4 M sucrose).
PSII membranes were suspended at a Chl concentration of 75 μg ml^−1 in buffer (25 mM MES-NaOH, pH 6.5, 5 mM NaCl, 5 mM CaCl2, 0.4 M sucrose) and the different redox forms of Cyt b559 were determined at a wavelength of 559 nm, from the reduced minus oxidized difference absorption spectra between 520 and 580 nm, recorded as described previously[34][35][57] using a spectrophotometer equipped with a head-on photomultiplier tube (UV-2600; Shimadzu, Kyoto, Japan). Complete oxidation of Cyt b559 was achieved by treatment with 2 mM potassium ferricyanide (midpoint redox potential Em ~ 430 mV) followed by its stepwise reduction. The reduction of the HP form (Em ~ 400 mV), the IP form (Em ~ 200 mV), and the LP form (Em ~ 50 mV) of Cyt b559[7][58][59][60] were performed by adding 4 mM hydroquinone (Em ~ 280 mV), 5 mM sodium ascorbate (Em ~ 60 mV), and 10 mM sodium dithionite (Em ~ −660 mV) in a step-wise manner. The absorption difference at 559 nm, in difference spectra of hydroquinone-reduced minus ferricyanide-oxidized, ascorbate-reduced minus hydroquinone-reduced, and dithionite-reduced minus ascorbate-reduced Cyt b559, enable the content of HP, IP, and LP form of Cyt b559, to be deduced, respectively. Baselines were set by drawing a straight line between absorption differences at 540 and 580 nm.

The substance “recombinant PsbP-WT protein from Spinacia oleracea (from UniProt P12302 82-267) (natural protein)” returned a content of the HP form of Cyt b559 in NaCl-washed PSII membranes after reconstitution at 4:1 (PsbP:PSII); about 34% without reconstitution in assay [1] of 58%.
“pN15-∆A^1: pN15 lacking its N-terminal Ala^1 (YGEAANVFGKPKKN-NH2; UniProt P12302 83-96, looked up, fragment)”: in assay [2], the “S2/S1 FTIR spectral intensity” value is on record as “moderate inhibitory effect”. In addition, in the assay with PSII, the “Rate of oxygen evolution (in words)” value was “none of these mutated pN15 fragments showed any inhibitory effect on oxygen evolution”. In addition, in the assay with Cyt b559 in PSII (NaCl-washed PSII membranes reconstituted with PsbP proteins at 4:1 or peptides at 200:1 (to PSII), 1 h on ice, 25 mM MES-NaOH pH 6.5, 5 mM NaCl, 5 mM CaCl2, 0.4 M sucrose, 559 nm, total Cyt b559 = 100%, n = 3 (controls: intact 59.3, NaCl-washed 33.7)), the “Relative content of the HP form of Cyt b559” value amounted to 38.2%. Also, in the assay with Cyt b559 in PSII (NaCl-washed PSII membranes reconstituted with PsbP proteins at 4:1 or peptides at 200:1 (to PSII), 1 h on ice, pH 6.5, total Cyt b559 = 100%, n = 3 (controls: intact 8.7, NaCl-washed 10.4)), the “Relative content of the LP form of Cyt b559” value was 13.6%. In addition, in the assay on Cyt b559 in PSII (NaCl-washed PSII membranes reconstituted with PsbP proteins at 4:1 or peptides at 200:1 (to PSII), 1 h on ice, pH 6.5, total Cyt b559 = 100%, n = 3 (controls: intact 32.0, NaCl-washed 55.9)), the “Relative content of the IP form of Cyt b559” value is listed as 48.2%. The “Restoration of HP Cyt b559 (in words)” value with Cyt b559 in PSII (reconstituted NaCl-washed PSII membranes, pH 6.5) was “This effect was not observed”.
